From patent US4461831A, “Antitumor agents albacarcins V and M” (Bristol-Myers Company, priority 1982, dated 1984)
Converted amounts (≈) assume the structure as drawn. Read-outs that look alike come from different tables or passages of the source.

How the values were obtained:
[1] = system: Streptomyces albaduncus strain C38291; assay: growth inhibition of producing strain by antibiotics; format: cell-based
Text: The growth of strain C38291 is inhibited by streptomycin or tetracycline, but not by benzylpenicillin, ampicillin or erythromycin. The sodium chloride tolerance is seen at 8% or less, but not at 10% or more. Melanin is not produced from L-3,4-dihydroxy phenylalanine (L-DOPA). Among eleven diagnostic sugars described in Bergey's Manual, 8th ed. (1974), only raffinose is not utilized by strain C38291. The physiological characteristics and utilization of carbohydrates are shown in Tables II and III, respectively.

gram-negative bacteria = assay: antibacterial activity, agar dilution, gram-negative summary; format: cell-based; settings: at the highest dose tested
Protocol: (§1) The antibacterial activities of albacarcin V and M were determined by a serial two-fold agar dilution method.

gram-positive bacteria = assay: antibacterial activity, agar dilution, gram-positive summary; format: cell-based; settings: summary of Table IV
Protocol: as §1

P388 leukemia = format: in vivo, CDF1 female mice; settings: for Effect MST % T/C / MST (median survival time): 3X, Days 1,4,7; for host survival in the P388 leukemia screening test (in words): mouse, in vivo
Text: Details of the methods used in this procedure have been described in Cancer Chemother. Rep. 3: 1-87 (Part 3), 1972.
Host CDF1 .female. mice
Treatment 3X, Days 1,4,7
Evaluation MST = median survival time
Effect % T/C = (MST treated/MST control) × 100
Criteria % T/C ≥ 125 considered significant antitumor activity.

Enterobacter cloacae = assay: antibacterial activity, serial two-fold agar dilution method; format: cell-based; settings: Strain No. 9659
Protocol: as §1

Pseudomonas aeruginosa = assay: as above; format: cell-based; settings: Strain No. 9843A
Protocol: as §1

Klebsiella pneumoniae = assay: as above; format: cell-based; settings: Strain No. 15130
Protocol: as §1

Streptococcus pneumoniae = assay: as above; format: cell-based; settings: Strain No. 9585
Protocol: as §1

Proteus mirabilis = assay: as above; format: cell-based; settings: Strain No. 9900
Protocol: as §1

Staphylococcus aureus = assay: as above; format: cell-based; settings: for MIC: Staphylococcus aureus, read-out: Minimum Inhibitory Concentration
Protocol: as §1

Streptococcus pyogenes = assay: as above; format: cell-based; settings: Strain No. 9604
Protocol: as §1

Escherichia coli = assay: as above; format: cell-based
Protocol: as §1

Proteus vulgaris = assay: as above; format: cell-based; settings: Strain No. 21559
Protocol: as §1

Serratia marcescens = assay: as above; format: cell-based; settings: Strain No. 20019
Protocol: as §1

[2] = reported in Antibiotiki 22: 963-967 at 967, 1977; cited from earlier work

For `CC1(C)S[C@@H]2[C@H](NC(=O)Cc3ccccc3)C(=O)N2[C@H]1C(=O)O` [benzylpenicillin], the “growth of strain C38291 inhibited or not” value [1] was “not”.

With `CC1(C)S[C@@H]2[C@H](NC(=O)[C@H](N)c3ccccc3)C(=O)N2[C@H]1C(=O)O` [ampicillin] the “growth of strain C38291 inhibited or not” value [1] was “not”.

In the case of `[H]/N=C(/N)N[C@H]1[C@H](O)[C@@H](O)[C@H](O[C@@H]2O[C@@H](C)[C@](O)(C=O)[C@H]2O[C@@H]2O[C@@H](CO)[C@H](O)[C@@H](O)[C@@H]2NC)[C@@H](N/C(N)=N\[H])[C@@H]1O` [streptomycin], the “growth of strain C38291 inhibited or not” value [1] is reported as “inhibited”.

For `CN(C)[C@@H]1C(=O)C(C(N)=O)=C(O)[C@@]2(O)C(=O)C3=C(O)c4c(O)cccc4[C@@](C)(O)[C@H]3C[C@@H]12` [tetracycline], the “growth of strain C38291 inhibited or not” value [1] was “inhibited”.

For `C=Cc1cc(OC)c2c(c1)c(=O)oc1c2cc(OC)c2c(O)ccc(C3OC(C)C(O)C(C)(O)C3O)c21` (stereo not drawn) [Albacarcin V, albacarcin V], the “gram-negative activity (in words)” value (gram-negative bacteria) was “Little or no gram-negative activity”, the “antibacterial potency relative to albacarcin M” value (gram-positive bacteria) was “more potent than albacarcin M” and the “gram-positive antibacterial activity (in words)” value (gram-positive bacteria) was “moderate gram-positive antibacterial activity”. The “Effect MST % T/C” value (P388 leukemia; 8 mg/kg/inj) was 113 % T/C, the “MST (median survival time)” value (P388 leukemia; 8 mg/kg/inj) was 9.0 days and the “Effect MST % T/C” value (P388 leukemia; 16 mg/kg/inj) was 131 % T/C. The “MST (median survival time)” value (P388 leukemia; 16 mg/kg/inj) was 10.5 days, the “Effect MST % T/C” value (P388 leukemia; 32 mg/kg/inj) was 150 % T/C and the “MST (median survival time)” value (P388 leukemia; 32 mg/kg/inj) was 12.0 days. The “Effect MST % T/C” value (P388 leukemia; 64 mg/kg/inj) was 194 % T/C, the “MST (median survival time)” value (P388 leukemia; 64 mg/kg/inj) was 15.5 days and the “Effect MST % T/C” value (P388 leukemia; 128 mg/kg/inj) was 200 % T/C. The “MST (median survival time)” value (P388 leukemia; 128 mg/kg/inj) was 16.0 days, the “Effect MST % T/C” value (P388 leukemia; 256 mg/kg/inj) was 100 % T/C and the “MST (median survival time)” value (P388 leukemia; 256 mg/kg/inj) was 8.0 days. The “potency relative to albacarcin M in P388 test” value (P388 leukemia; comparing optimum doses (maximum T/C) and minimum effective dose (lowest dose giving T/C>125)) was “twice as potent as albacarcin M”, the “host survival in the P388 leukemia screening test (in words)” value (P388 leukemia) was “significantly prolong host survival” and the “Minimum Inhibitory Concentration” value (Enterobacter cloacae) was > 50 µg/mL. For the same compound, the “Minimum Inhibitory Concentration” value (Pseudomonas aeruginosa) was > 50 µg/mL, the “Minimum Inhibitory Concentration” value (Klebsiella pneumoniae) was > 50 µg/mL and the “Minimum Inhibitory Concentration” value (Streptococcus pneumoniae) was 0.025 µg/mL. The “Minimum Inhibitory Concentration” value (Proteus mirabilis) was > 50 µg/mL, the “Minimum Inhibitory Concentration” value (Staphylococcus aureus; Strain No. 9497) was 0.0125 µg/mL and the “Minimum Inhibitory Concentration” value (Staphylococcus aureus; Strain No. 9537) was 0.0125 µg/mL. The “Minimum Inhibitory Concentration” value (Staphylococcus aureus; Strain No. 9606) was 0.4 µg/mL, the “Minimum Inhibitory Concentration” value (Staphylococcus aureus; Strain No. 20688) was 0.1 µg/mL and the “Minimum Inhibitory Concentration” value (Streptococcus pyogenes) was 0.05 µg/mL. For the same compound, the “Minimum Inhibitory Concentration” value (Escherichia coli; Strain No. 15119) was > 50 µg/mL, the “Minimum Inhibitory Concentration” value (Escherichia coli; Strain No. 20341-1) was > 50 µg/mL and the “Minimum Inhibitory Concentration” value (Proteus vulgaris) was 3.2 µg/mL. The “Minimum Inhibitory Concentration” value (Serratia marcescens) was > 50 µg/mL.

For `CC[C@H]1OC(=O)[C@H](C)[C@@H](O[C@H]2C[C@@](C)(OC)[C@@H](O)[C@H](C)O2)[C@H](C)[C@@H](O[C@@H]2O[C@H](C)C[C@H](N(C)C)[C@H]2O)[C@](C)(O)C[C@@H](C)C(=O)[C@H](C)[C@@H](O)[C@]1(C)O` [erythromycin], the “growth of strain C38291 inhibited or not” value [1] was “not”.

For virenomycin, the “antitumor activity (in words)” value [2] is listed as “comparatively low antitumor activity and narrow spectrum”.

In the case of `COc1cc2c(oc(=O)c3cc(C)cc(OC)c32)c2c(C3OC(C)C(O)C(C)(O)C3O)ccc(O)c12` (stereo not drawn) [Albacarcin M, albacarcin M], the “gram-negative activity (in words)” value (gram-negative bacteria) is reported as “Little or no gram-negative activity”, the “gram-positive antibacterial activity (in words)” value (gram-positive bacteria) is reported as “moderate gram-positive antibacterial activity” and the “Effect MST % T/C” value (P388 leukemia; 8 mg/kg/inj) is reported as 113 % T/C. The “MST (median survival time)” value (P388 leukemia; 8 mg/kg/inj) was 9.0 days, the “Effect MST % T/C” value (P388 leukemia; 16 mg/kg/inj) was 119 % T/C and the “MST (median survival time)” value (P388 leukemia; 16 mg/kg/inj) was 9.5 days. The “Effect MST % T/C” value (P388 leukemia; 32 mg/kg/inj) was 150 % T/C, the “MST (median survival time)” value (P388 leukemia; 32 mg/kg/inj) was 12.0 days and the “Effect MST % T/C” value (P388 leukemia; 64 mg/kg/inj) was 150 % T/C. For the same compound, the “MST (median survival time)” value (P388 leukemia; 64 mg/kg/inj) was 12.0 days, the “Effect MST % T/C” value (P388 leukemia; 128 mg/kg/inj) was 175 % T/C and the “MST (median survival time)” value (P388 leukemia; 128 mg/kg/inj) was 14.0 days. For the same compound, the “Effect MST % T/C” value (P388 leukemia; 256 mg/kg/inj) was 200 % T/C, the “MST (median survival time)” value (P388 leukemia; 256 mg/kg/inj) was 16.0 days and the “host survival in the P388 leukemia screening test (in words)” value (P388 leukemia) was “significantly prolong host survival”. For the same compound, the MIC (Enterobacter cloacae; Enterobacter cloacae, read-out: Minimum Inhibitory Concentration) was > 50 µg/mL, the MIC (Pseudomonas aeruginosa; Pseudomonas aeruginosa, read-out: Minimum Inhibitory Concentration) was > 50 µg/mL and the MIC (Klebsiella pneumoniae; Klebsiella pneumoniae, read-out: Minimum Inhibitory Concentration) was > 50 µg/mL. The MIC (Streptococcus pneumoniae; Streptococcus pneumoniae, read-out: Minimum Inhibitory Concentration) was 0.4 µg/mL (≈ 0.806 µM), the MIC (Proteus mirabilis; Proteus mirabilis, read-out: Minimum Inhibitory Concentration) was > 50 µg/mL and the MIC (Staphylococcus aureus; Strain No. 9497) was 0.8 µg/mL (≈ 1.61 µM). The MIC (Staphylococcus aureus; Strain No. 9537) was 3.2 µg/mL (≈ 6.44 µM), the MIC (Staphylococcus aureus; Strain No. 9606) was 3.2 µg/mL (≈ 6.44 µM) and the MIC (Staphylococcus aureus; Strain No. 20688) was 1.6 µg/mL (≈ 3.22 µM). The MIC (Streptococcus pyogenes; Streptococcus pyogenes, read-out: Minimum Inhibitory Concentration) was 1.6 µg/mL (≈ 3.22 µM), the MIC (Escherichia coli; Escherichia coli, Strain No. 15119, read-out: Minimum Inhibitory Concentration) was > 50 µg/mL and the “Minimum Inhibitory Concentration” value (Escherichia coli; Strain No. 20341-1) was > 50 µg/mL. For the same compound, the MIC (Proteus vulgaris; Proteus vulgaris, read-out: Minimum Inhibitory Concentration) was > 50 µg/mL and the MIC (Serratia marcescens; Serratia marcescens, read-out: Minimum Inhibitory Concentration) was > 50 µg/mL.
